For assay [1], the system named is extracellular domain of IFNAR1. The assay is described as follows: Pull-down / co-immunoprecipitation of LRPAP1 with IFNAR1. It counts as binding. As to conditions: HEK-293T cells ectopic-expressing LRPAP1 and IFNAR1; also mouse cerebrum. The protocol: (§1) The interaction of LRPAP1, LRP1 and IFNAR1 was examined by immunoprecipitation using a protocol described as followed. HEK293T cells were cultured at around 90% confluence in a 100 mm tissue culture dish. Cells were washed with 10 ml of PBS and harvested in 0.5 ml of ice-cold lysis buffer ([…], pH 7.4, 1% SDS, 1% NP-40) and Protease Cocktail (Roche) and PhoSTOP (Roche). The total extract was pre-cleared with 10 μg normal rabbit IgG (Cell signaling, 2729 S) and 20 μl of protein A/G plus-agarose (Santa Cruz Biotechnology) at 4 °C on a rotor for 1 h. After gently removed protein A/G agarose beads by centrifugation at 500 rcf for 2 min, 0.2 mg of total extract was immunoprecipitated with the indicated antibodies overnight at 4 °C on a rotor. Approximately 20 μl of protein A/G plus-agarose (Santa Cruz Biotechnology) was added at 4 °C for one hour. Then, the beads were washed three times with washing buffer (lysis buffer contained 0.1% NP-40). The pellet was suspended with 40 μl PBS and 10 μl of 5× SDS-PAGE loading buffer and the samples were boiled for 10 min.
The interaction of LRPAP1, LRP1 and IFNAR1 was examined by immunoprecipitation using a protocol described as followed. HEK293T cells were cultured at around 90% confluence in a 100 mm tissue culture dish. […]

Assay [2] deals with IFNAR1. The assay is described as follows: IFNAR1 ubiquitination, immunoprecipitation, HEK-293T cells. It counts as cell-based, human. The conditions noted are these: ubiquitin, LRPAP1 and IFNAR1 overexpressed. The protocol:
as §1

In the next assay the test system is 2A^pro. The assay is described as follows: MST binding to recombinant 2A protease (baits r2A and 2Am; MS and MST). Further details: species or system EV71. As to conditions: recombinant 2A^pro (r2A) and 2A^C110A (2Am) as baits. The protocol: (§2) The polyhistidine (His)-tag peptides, the recombinant 2A, the recombinant 2Am, and ECD-IFNAR1, were incubated with the RED-tris-NTA 2nd Generation dye (Cat#MO-L018, Nanotemper-Technologies) for 30 min, respectively. Then these fluorescently labeled peptides were mixed with the serial diluted ligands, including the scramble peptide, the commercial penetrating peptide (RV5), LRPAP1 peptides (RAPD1P1, RAPD1P2), or rLRPAP1 without His-tag, respectively. The mixtures were captured by Monolith^TM NT.115 Series capillaries (Cat# MO-K022). Capillaries were then subjected to Monolith NT for MST analysis. According to Monolith guidelines, signal-to-noise (S/N) ratios greater than 5.0 were indicated as the valid binding.
as §2, with “NT. For” for “NT for”, “According to Monolith guidelines, signal-to-noise (S/N) ratios greater than 5.0 were indicated as the valid binding.” left out

The subject of assay [3] is IFNAR1. The assay is described as follows: IFNAR1 protein level, HepAD38 cells, immunoblot. In kind it is cell-based. As to conditions: siRNA or overexpression 48 h; LF 400 nM 24 h.
The test system of the next assay is HBV. The assay is described as follows: HBV level in HepAD38 cells, immunoblot. In kind it is cell-based. As to conditions: HepAD38, siRNA or overexpression 48 h. (In general: In western blotting, separated proteins are transferred to a membrane and probed.)
In another assay the test system is EV71. The assay is described as follows: EV71 infection of RD cells (viral RNA, titer, viral protein, CPE). The conditions noted are these: RD cells, 9 h; plasmid, recombinant protein or peptide pre-treatment; viral RNA / titer.
For a further assay, the system named is HCoV-OC43. The assay is described as follows: HCoV-OC43 infection of RD cells (viral RNA, TCID50, CPE). The conditions noted are these: antibody 0.5 μg/ml; peptides 1 μM or rLRPAP1 200 nM pre-treatment 1 h, 72 h; siRNA 24 h then MOI 1, 72 h.
In assay [4] the test system is IFNAR1. The assay is described as follows: IFNAR1 protein level, immunoblot, HEK-293T cells. It counts as cell-based, human.
Assay [5] concerns type I IFN signaling pathway. The assay is described as follows: Interferon-stimulated gene (ISG) mRNA levels, RD cells. It counts as cell-based. As to conditions: excessive LRPAP1 expression.
The next assay relates to HSV-1. The assay is described as follows: HSV-1 infection of RD cells (viral DNA, TCID50, viral protein, CPE).

The values below come from PMC10518340, “Secreted LRPAP1 binds and triggers IFNAR1 degradation to facilitate virus evasion from cellular innate immunity” (Signal Transduction and Targeted Therapy, 2023).

For the substance “LDL-receptor-related protein-associated protein 1 [LRPAP1]”, the “interaction of LRPAP1 and IFNAR1 (co-immunoprecipitation)” value in assay [1] was “confirmed the interaction of LRPAP1 and IFNAR1”. Moreover, the IFNAR1 ubiquitination result in the assay on IFNAR1 [2] is “dramatically increased IFNAR1 ubiquitination”. The “interaction with 2A^pro” value with 2A^pro is “interacts with 2A^pro”. Further, the “IFNAR1 expression in HepAD38 cells” value in the assay on IFNAR1 [3] is “decreased level of IFNAR1”. For the same substance, the HBV level result in the assay with HBV is recorded as “higher HBV loads”. In addition, in the assay with EV71, the EV71 infection entry was “strikingly promoted EV71 infection”. Further, the “HCoV-OC43 CPE” value in the assay with HCoV-OC43 is recorded as “more obvious cytopathic effects”. In addition, the “IFNAR1 level on simultaneous expression of LRPAP1 and 2A^pro” value in the assay with IFNAR1 [4] (co-expressed with 2A^pro) is recorded as “complete undetectability of IFNAR1 levels”. Also, in the assay with IFNAR1 [4] (transfected cells (ectopic expression or siRNA)), the IFNAR1 level entry is recorded as “decreasing IFNAR1 to a marginal detectable level”. Also, the “type I IFN signaling pathway” value in assay [5] was “suppressing the type I IFN signaling pathway and the expression of downstream interferon-stimulated genes”. Moreover, the “HSV-1 CPE” value in the assay on HSV-1 (peptides 1 μM or rLRPAP1 200 nM pre-treatment 1 h, 24 h) is “more obvious cytopathic effect”. In addition, in the assay with HSV-1 (pre-treated 1 h, MOI 10, 24 h, RT-qPCR), the “HSV-1 DNA replication” value is on record as “promoted the DNA replication of HSV-1”.
